SMILES	melting point
Cn1cncc1C(O)(c1ccc(C=O)cc1)c1ccc2c(c1)c(-c1cccc(Cl)c1)nc1nnnn12 (stereo not drawn) [Example B38, 4-[[5-(3-chlorophenyl)tetrazolo[1,5-a]quinazolin-7-yl]hydroxy(1-methyl-1H-imidazol-5-yl)methyl]-benzaldehyde]	170 °C
Cn1cnnc1C(N)(c1ccc(C#N)cc1)c1ccc2c(c1)c(-c1cccc(Cl)c1)nc1nnnn12 (stereo not drawn) [Example B29d, 4-[amino[5-(3-chlorophenyl)tetrazolo[1,5-a]quinazolin-7-yl](4-methyl-4H-1,2,4-triazol-3-yl)methyl]-benzonitrile]	194 °C
Cn1cncc1C(O)(c1ccc(C#N)cc1)c1ccc2c(c1)c(-c1cccc(Cl)c1)cc(=O)n2C (racemic) [Example B41b, (±)-4-[[4-(3-chlorophenyl)-1,2-dihydro-1-methyl-2-oxo-6-quinolinyl]hydroxy(1-methyl-1H-imidazol-5yl)methyl]benzonitrile]	210 °C
Cn1cncc1C(O)(c1ccc(CO)cc1)c1ccc2c(c1)c(-c1cccc(Cl)c1)cc(=O)n2C (racemic) [Example B9, (±)-4-(3-chlorophenyl)-6-[hydroxy[4-(hydroxymethyl)phenyl](1-methyl-1H-imidazol-5-yl)methyl]-1-methyl-2(1H)-quinolinone]	273 °C
Cn1cnnc1C(O)(c1ccc(Cl)cc1)c1ccc2[nH]c(=O)cc(-c3cccc(Cl)c3)c2c1 (stereo not drawn) [Example B32, 4-(3-chlorophenyl)-6-[(4-chlorophenyl)hydroxy(4-methyl-4H-1,2,4-triazol-3-yl)methyl]-2(1H)-quinolinone]	> 260 °C
CC(C)OC(=O)c1cccc(C(O)(c2ccc3c(c2)c(-c2cccc(Cl)c2)cc(=O)n3C)c2cncn2C)c1 (stereo not drawn) [Example B45a, 1-methylethyl 3-[[4-(3-chlorophenyl)-1,2-dihydro-1-methyl-2-oxo-6-quinolinyl]hydroxy(1-methyl-1H-imidazol-5-yl)methyl]-benzoate]	150 °C
CSc1nnc(C(N)(c2ccc(Cl)cc2)c2ccc3c(c2)c(-c2cccc(Cl)c2)nc2nnnn23)n1C (stereo not drawn) [Example B28d, 5-(3-chlorophenyl)-α-(4-chlorophenyl)-α-[4-methyl-5-(methylthio)-4H-1,2,4-triazol-3-yl]-tetrazolo[1,5-a]quinazoline-7-methanamine]	150 °C
Cn1cnnc1C(c1ccc(Cl)cc1)c1ccc2c(c1)c(-c1cccc(Cl)c1)nc1nnnn12 (stereo not drawn) [Example B20, 5-(3-chlorophenyl)-7-[(4-chlorophenyl)(4methyl-4H-1,2,4-triazol-3-yl)methyl]-tetrazolo[1,5-a]quinazoline]	217 °C
Cl.Cn1cncc1C(O)(c1ccc(C(=O)O)cc1)c1ccc2[nH]c(=O)cc(-c3cccc(Cl)c3)c2c1.O (racemic) (hydrate or solvate)	> 300 °C
CC(O)c1ccc(C(O)(c2ccc3c(c2)c(-c2cccc(Cl)c2)cc(=O)n3C)c2cncn2C)cc1 (racemic) [Example B17, (±)-4-(3-chlorophenyl)-6-[hydroxy[4-(1-hydroxyethyl)phenyl](1-methyl-1H-imidazol-5-yl)methyl]-1-methyl-2(1H)-quinolinone]	181 °C
Cn1cncc1C(N)(c1ccc([N+](=O)[O-])cc1)c1ccc2c(c1)c(-c1cccc(Cl)c1)cc(=O)n2C (racemic) [Example B8b, (±)-6-[amino(1-methyl-1H-imidazol-5-yl)(4-nitrophenyl)methyl]-4-(3-chlorophenyl)-1-methyl-2(1H)-quinolinone]	258 °C
Cn1cnnc1C(CCl)(c1ccc(Cl)cc1)c1ccc2c(c1)c(-c1cccc(Cl)c1)cc(=O)n2C (stereo not drawn) [Example B31, 6-[2-chloro-1-(4-chlorophenyl)-1-(4-methyl-4H-1,2,4-triazol-3-yl)ethyl]-4-(3-chlorophenyl)-1-methyl-2(1H)-quinolinone]	260 °C
